14 compounds from patent publication US12630548B2, “Azetidine derivatives for the treatment of integrin associated diseases” (The University of Nottingham, priority 2020, dated 2026) can be followed below.

One data set has as its target ανβ6 (Homo sapiens, UniProt P06756+P18564). Put plainly: Cell adhesion assay, αvβ6 integrin. The class given is cell-based. As to the method:
The assays were performed as described in the literature (P. A. Procopiou, N. A. Anderson, J. Barrett, T. N. Barrett, M. H. J. Crawford, B. J. Fallon, A. P. Hancock, J. Le, S. Lemma, R. P. Marshall, J. Morrell, J. M. Pritchard, J. E. Rowedder, P. Saklatvala, R. J. Slack, S. L. Sollis, C. J. Suckling, L. R. Thorp, G. Vitulli, et al., J. Med. Chem. 2018, 61, 8417-8443; S. B. Ludbrook, S. T. Barry, C. J. Delves, C. M. T. Horgan, Biochem. J. 2003, 369, 311-318).

The nature of data set [1]: ChromlogD (lipophilicity). The class given is physicochemical. Particulars: pH 7.4. The text has this:
ChromlogD is a measure of lipophilicity of a compound (R. J. Young et al. Drug Discovery Today 2011, […]). Lipophilicity is a key physicochemical property that plays a crucial role in determining ADMET (absorption, distribution, metabolism, excretion, and toxicity) properties and the overall suitability of drug candidates.

For the next data set, the target named is hERG (Homo sapiens, UniProt Q12809). Description: hERG Q-patch. Particulars: read-out: hERG Q-patch (pIC50) (converted). The class given is cell-based. The text has this:
The human ether-a-go-go related gene (hERG) encodes the inward rectifying voltage gated potassium channel in the heart (IKr) that is involved in cardiac repolarisation. Inhibition of the hERG current causes QT interval prolongation resulting in potentially fatal ventricular tachyarrhythmia called Torsade de Pointes. A number of drugs have been withdrawn from late stage clinical trials due to these cardiotoxic effects, therefore it is important to identify inhibitors early in drug discovery (W. Haverkamp et al. Eur Heart J., 2000, 21(15), 1216). A low potency in this screen is advantageous for compound development.
A general note: The hERG channel carries a current that helps repolarise heart muscle cells.

Setting [2] is: cell adhesion data, read-out: ανβ6 IC50.

The chromatographic logD is lipophilicity estimated from chromatographic retention.

Where two headings read alike, the source gives them in different places. Bounds are passed on as bounds.

Chain of ανβ6 (P06756 31-889 limits assumed): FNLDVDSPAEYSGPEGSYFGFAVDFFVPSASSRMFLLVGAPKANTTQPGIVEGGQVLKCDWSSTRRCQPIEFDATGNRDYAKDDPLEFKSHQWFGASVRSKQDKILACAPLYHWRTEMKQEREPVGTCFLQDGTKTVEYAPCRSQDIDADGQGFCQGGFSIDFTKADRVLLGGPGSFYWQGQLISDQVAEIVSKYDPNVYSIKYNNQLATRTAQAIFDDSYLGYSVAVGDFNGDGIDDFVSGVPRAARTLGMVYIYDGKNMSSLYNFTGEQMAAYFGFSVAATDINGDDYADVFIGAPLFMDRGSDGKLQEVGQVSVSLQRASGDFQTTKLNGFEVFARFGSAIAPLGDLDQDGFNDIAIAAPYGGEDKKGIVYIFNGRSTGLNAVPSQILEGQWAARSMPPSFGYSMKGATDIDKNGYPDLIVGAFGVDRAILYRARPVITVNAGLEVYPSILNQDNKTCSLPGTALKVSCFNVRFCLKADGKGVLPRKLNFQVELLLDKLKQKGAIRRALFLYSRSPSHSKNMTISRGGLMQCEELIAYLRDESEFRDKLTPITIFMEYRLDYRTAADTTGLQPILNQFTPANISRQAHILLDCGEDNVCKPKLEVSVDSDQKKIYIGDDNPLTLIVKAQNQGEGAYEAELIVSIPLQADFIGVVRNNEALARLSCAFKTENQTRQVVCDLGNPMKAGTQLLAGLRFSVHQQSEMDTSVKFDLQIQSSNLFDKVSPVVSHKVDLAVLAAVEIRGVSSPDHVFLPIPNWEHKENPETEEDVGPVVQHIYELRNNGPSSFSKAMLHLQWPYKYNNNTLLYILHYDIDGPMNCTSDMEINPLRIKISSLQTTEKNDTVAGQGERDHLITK
Chain of ανβ6 (P06756 891-1048 limits assumed): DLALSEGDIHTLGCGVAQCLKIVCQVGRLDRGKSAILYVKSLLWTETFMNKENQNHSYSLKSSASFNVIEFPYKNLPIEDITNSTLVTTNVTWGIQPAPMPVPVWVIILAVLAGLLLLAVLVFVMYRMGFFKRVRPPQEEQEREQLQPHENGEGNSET
Chain of ανβ6 (P18564 22-788): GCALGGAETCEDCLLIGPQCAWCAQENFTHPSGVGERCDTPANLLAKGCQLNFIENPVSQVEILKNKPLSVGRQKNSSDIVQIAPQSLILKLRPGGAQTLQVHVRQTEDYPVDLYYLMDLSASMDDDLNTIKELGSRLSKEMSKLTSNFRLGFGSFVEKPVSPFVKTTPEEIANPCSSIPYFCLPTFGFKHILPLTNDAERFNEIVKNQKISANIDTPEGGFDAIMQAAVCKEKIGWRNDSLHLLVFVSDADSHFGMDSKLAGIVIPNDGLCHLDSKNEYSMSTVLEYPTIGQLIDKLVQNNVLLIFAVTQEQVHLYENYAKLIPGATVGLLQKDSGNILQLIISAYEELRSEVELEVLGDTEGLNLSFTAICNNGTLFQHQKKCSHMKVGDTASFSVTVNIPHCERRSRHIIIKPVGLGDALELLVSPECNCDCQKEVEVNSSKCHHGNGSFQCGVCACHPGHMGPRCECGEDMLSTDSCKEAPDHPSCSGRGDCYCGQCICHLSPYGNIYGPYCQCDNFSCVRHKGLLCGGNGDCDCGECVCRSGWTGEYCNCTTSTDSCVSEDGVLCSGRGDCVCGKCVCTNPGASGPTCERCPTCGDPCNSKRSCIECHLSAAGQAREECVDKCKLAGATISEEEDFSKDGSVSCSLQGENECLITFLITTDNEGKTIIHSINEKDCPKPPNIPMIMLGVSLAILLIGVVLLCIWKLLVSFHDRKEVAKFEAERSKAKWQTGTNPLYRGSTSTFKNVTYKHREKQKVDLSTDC
Chain of hERG (Q12809 whole entry): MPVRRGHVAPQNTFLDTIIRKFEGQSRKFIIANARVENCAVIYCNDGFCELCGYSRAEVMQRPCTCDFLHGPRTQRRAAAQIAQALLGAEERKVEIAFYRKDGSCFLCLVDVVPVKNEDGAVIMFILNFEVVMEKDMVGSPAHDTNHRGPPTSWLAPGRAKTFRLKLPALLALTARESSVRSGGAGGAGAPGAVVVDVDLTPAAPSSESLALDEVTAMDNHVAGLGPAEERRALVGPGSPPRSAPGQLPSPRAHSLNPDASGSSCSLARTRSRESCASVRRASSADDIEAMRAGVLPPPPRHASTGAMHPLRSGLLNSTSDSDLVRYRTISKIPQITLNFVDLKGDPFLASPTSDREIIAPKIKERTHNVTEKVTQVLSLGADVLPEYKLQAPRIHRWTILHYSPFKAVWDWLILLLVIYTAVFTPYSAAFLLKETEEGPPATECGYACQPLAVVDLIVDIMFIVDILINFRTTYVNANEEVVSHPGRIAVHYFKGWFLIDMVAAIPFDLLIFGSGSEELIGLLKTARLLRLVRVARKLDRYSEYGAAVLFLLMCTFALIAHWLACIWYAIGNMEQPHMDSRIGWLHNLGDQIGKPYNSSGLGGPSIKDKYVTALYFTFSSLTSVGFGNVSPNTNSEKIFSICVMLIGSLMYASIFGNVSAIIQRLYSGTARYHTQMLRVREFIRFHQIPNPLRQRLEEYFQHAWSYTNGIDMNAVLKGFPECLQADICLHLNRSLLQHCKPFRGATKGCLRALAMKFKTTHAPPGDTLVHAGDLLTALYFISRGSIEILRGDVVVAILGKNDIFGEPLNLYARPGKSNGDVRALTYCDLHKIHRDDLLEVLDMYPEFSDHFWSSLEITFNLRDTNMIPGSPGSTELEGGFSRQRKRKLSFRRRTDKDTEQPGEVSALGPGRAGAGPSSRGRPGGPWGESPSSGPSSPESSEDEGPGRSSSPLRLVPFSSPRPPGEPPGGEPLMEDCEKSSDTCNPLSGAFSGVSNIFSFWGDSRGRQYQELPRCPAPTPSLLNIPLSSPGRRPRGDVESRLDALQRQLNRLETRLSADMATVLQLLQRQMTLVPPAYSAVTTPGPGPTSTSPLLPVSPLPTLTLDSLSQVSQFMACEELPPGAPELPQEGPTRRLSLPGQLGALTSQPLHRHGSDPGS

As to `Cc1cccc(S(=O)(=O)N2CC(C(=O)N[C@@H](CNC(=O)CCCCc3ccc4c(n3)NCCC4)C(=O)O)C2)c1` [Example 6A], the IC50 is below 250 nM at ανβ6 (setting [2]); 5.01 nM on ανβ6 (comparison table, Example 6A, read-out: αvβ6 (pIC50) (converted)); above 31600 nM on hERG. In data set [1], this compound displayed a chromatographic logD of 2.27.

Turning to `COc1cccc(S(=O)(=O)N2CC(C(=O)N[C@@H](CNC(=O)CCCCc3ccc4c(n3)NCCC4)C(=O)O)C2)c1` [Example 28, (S)-2-(1-(3-Methoxybenzenesulfonyl)azetidine-3-carboxamido)-3-(5-(5,6,7,8-tetrahydro-1,8-naphthyridin-2-yl)pentanamido)propanoic acid], the IC50 at ανβ6 (setting [2]) was below 250 nM.

As for `O=C(CCCCc1ccc2c(n1)NCCC2)NC[C@H](NC(=O)C1CN(S(=O)(=O)c2cccc(C(F)F)c2)C1)C(=O)O` [Example 29, (S)-2-(1-(3-(Difluoromethyl)benzenesulfonyl)azetidine-3-carboxamido)-3-(5-(5,6,7,8-tetrahydro-1,8-naphthyridin-2-yl)pentanamido)propanoic acid], the IC50 on ανβ6 (setting [2]) was below 250 nM.

For `O=C(CCCCc1ccc2c(n1)NCCC2)NC[C@H](NC(=O)C1CN(S(=O)(=O)c2cccc(C3CC3)c2)C1)C(=O)O` [Example 30, (S)-2-(1-(3-Cyclopropylbenzenesulfonyl)azetidine-3-carboxamido)-3-(5-(5,6,7,8-tetrahydro-1,8-naphthyridin-2-yl)pentanamido)propanoic acid], the IC50 on ανβ6 (setting [2]) was below 250 nM.

As for `O=C(CCCCc1ccc2c(n1)NCCC2)NC[C@H](NC(=O)C1CN(S(=O)(=O)c2ccc3c(c2)CCC3)C1)C(=O)O` [Example 31, (S)-2-(1-((2,3-Dihydro-1H-inden-5-yl)sulfonyl)azetidine-3-carboxamido)-3-(5-(5,6,7,8-tetrahydro-1,8-naphthyridin-2-yl)pentanamido)propanoic acid], the IC50 on ανβ6 (setting [2]) was below 250 nM.

Turning to `COc1ccc(S(=O)(=O)N2CC(C(=O)N[C@@H](CNC(=O)CCCCc3ccc4c(n3)NCCC4)C(=O)O)C2)cc1OC` [Example 32, (S)-2-(1-(3,4-Dimethoxybenzenesulfonyl)azetidine-3-carboxamido)-3-(5-(5,6,7,8-tetrahydro-1,8-naphthyridin-2-yl)pentanamido)propanoic acid], on ανβ6 (setting [2]), the IC50 was below 250 nM.

On to `O=C(CCCCc1ccc2c(n1)NCCC2)NC[C@H](NC(=O)C1CN(S(=O)(=O)c2cccc(C3=CCOCC3)c2)C1)C(=O)O` [Example 33], for which, at ανβ6 (setting [2]), the IC50 is below 250 nM.

Consider `O=C(CCCCc1ccc2c(n1)NCCC2)NC[C@H](NC(=O)C1CN(S(=O)(=O)c2cccc(N3CCNCC3)c2)C1)C(=O)O` [Example 34, (S)-2-(1-(3-(Piperazin-1-yl)benzenesulfonyl)azetidine-3-carboxamido)-3-(5-(5,6,7,8-tetrahydro-1,8-naphthyridin-2-yl)pentanamido)propanoic acid], for which, at ανβ6 (setting [2]), the IC50 was below 250 nM.

Consider `CN(C)CCOc1cccc(S(=O)(=O)N2CC(C(=O)N[C@@H](CNC(=O)CCCCc3ccc4c(n3)NCCC4)C(=O)O)C2)c1` [Example 35], for which the IC50 on ανβ6 (setting [2]) is below 250 nM.

As for `Cc1cccc(S(=O)(=O)N2CC(C(=O)N[C@@H](CC(=O)NCCCCc3ccc4c(n3)NCCC4)C(=O)O)C2)c1` [Example 36, N4-(4-(5,6,7,8-Tetrahydro-1,8-naphthyridin-2-yl)butyl)-N2-(1-(3-methylbenzenesulfonyl)azetidine-3-carbonyl)-L-asparagine], the IC50 on ανβ6 (setting [2]) is below 250 nM.

Take `Cc1cccc(S(=O)(=O)N2CC(C(=O)N[C@@H](CCN(C)CCCCc3ccc4c(n3)NCCC4)C(=O)O)C2)c1` [Example 37, (S)-4-(Methyl(4-(5,6,7,8-tetrahydro-1,8-naphthyridin-2-yl)butyl)amino)-2-(1-(3-methylbenzenesulfonyl)azetidine-3-carboxamido)butanoic acid]: on ανβ6 (setting [2]), the IC50 is below 250 nM.

As for `CN(CCCCc1ccc2c(n1)NCCC2)CC[C@H](NC(=O)C1CN(S(=O)(=O)c2ccccc2)C1)C(=O)O` [Example 38, (S)-4-(Methyl(4-(5,6,7,8-tetrahydro-1,8-naphthyridin-2-yl)butyl)amino)-2-(1-(phenylsulfonyl)azetidine-3-carboxamido)butanoic acid], the IC50 at ανβ6 (setting [2]) was below 250 nM.

As to `CN(CCCCc1ccc2c(n1)NCCC2)CC[C@H](NC(=O)C1CN(S(=O)(=O)c2cccc(Cl)c2)C1)C(=O)O` [Example 39, (S)-2-(1-((3-chlorophenyl)sulfonyl)azetidine-3-carboxamido)-4-(methyl(4-(5,6,7,8-tetrahydro-1,8-naphthyridin-2-yl)butyl)amino)butanoic acid], on ανβ6 (setting [2]), the IC50 is below 250 nM.

Turning to `Cc1ccc(S(=O)(=O)N2CC(C(=O)N[C@@H](CCN(C)CCCCc3ccc4c(n3)NCCC4)C(=O)O)C2)cc1` [Example 40, (S)-4-(Methyl(4-(5,6,7,8-tetrahydro-1,8-naphthyridin-2-yl)butyl)amino)-2-(4-methylbenzenesulfonylazetidine-3-carboxamido)butanoic acid], at ανβ6 (setting [2]), the IC50 was below 250 nM.
